Molecules are shown by their SMILES.

In the test the target is T1, human H3 receptor (Homo sapiens, UniProt Q9Y5N1).
T1 construct: expressed in transfected cells
T1 sequence (Q9Y5N1 whole entry): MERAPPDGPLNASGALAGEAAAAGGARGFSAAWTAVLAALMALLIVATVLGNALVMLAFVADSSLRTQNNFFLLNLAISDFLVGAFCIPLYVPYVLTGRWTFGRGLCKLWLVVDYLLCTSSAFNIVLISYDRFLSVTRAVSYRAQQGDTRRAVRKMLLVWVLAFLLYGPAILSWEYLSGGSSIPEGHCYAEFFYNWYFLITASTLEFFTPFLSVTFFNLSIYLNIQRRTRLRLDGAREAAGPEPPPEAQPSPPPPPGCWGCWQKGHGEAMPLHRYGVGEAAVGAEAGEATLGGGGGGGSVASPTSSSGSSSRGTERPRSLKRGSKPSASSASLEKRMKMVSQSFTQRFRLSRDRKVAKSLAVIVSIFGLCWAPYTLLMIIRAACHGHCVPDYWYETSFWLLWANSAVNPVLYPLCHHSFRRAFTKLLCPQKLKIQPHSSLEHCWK
Nature of the test: In vitro H3 binding assay (3H-N-α-methyl-histamine competition binding). The settings on record: membranes of CHO-K1 cells expressing human H3 receptor; 2 nM 3H-NαMH; read-out: hH3 binding IC50. Here is the method:
The ability of compounds to bind to the H3 receptor was determined by measuring the reduction in tritiated N-α-methyl-histamine (^3H—NαMH) binding in a competition binding assay. Changes in the levels of bound radio-label were monitored by scintillation counting with a Trilux Microbeta (Perkin Elmer).
Membranes were prepared from CHO-K1 cells stably expressing human H3 receptor; routinely grown as monolayers in Ham's F12 medium (Invitrogen) supplemented with 10% Foetal Clone 111 (Hyclone), 500 μg/ml G418 (Invitrogen), 5 μg/ml blasticidine S (Invivogen) and […] Gentamicin (Sigma) in 5% CO2 at 37° C. Cells were grown to 80-95% confluency, rinsed once with 1×PBS (Invitrogen) and detached by incubating with 1×PBS containing 0.02% EDTA (Sigma) for 10 minutes at room temperature. Cells were collected by centrifugation at 900×g, 4° C. for 10 minutes. Cells were rinsed once with 1×PBS and re-suspended in ice cold homogenisation buffer (50 mM Tris-HCl (pH 7.4), 2.5 mM EDTA, 5 mM MgCl2, 200 mM Sucrose) at 1×10^7 cells/ml and kept on ice. Cells were homogenised on ice and debris removed by centrifugation at 500×g, 4° C. for 5 minutes. The resulting supernatant was centrifuged at 75,600×g, 4° C. for 60 minutes. Membranes were suspended in homogenisation buffer, protein concentration was determined (BCA Protein Assay kit (Pierce)), diluted to 2.2 mg/ml, dispensed into 1 ml aliquots and stored at −80° C.
Membranes were thawed on ice, sonicated with 4 cycles of 20 pulses (50% amplitude, 0.5 pulse) (UP200S Hielscher) on ice, diluted in assay buffer (50 mM Tris-HCl (pH7.4), 5 mM MgCl2) to 62.5 μg/ml. Compound was serially diluted in DMSO before being diluted 1:10 with assay buffer. 5 μg of membrane in 80 μl of assay buffer was added per well of a 96 well polystyrene plate (Corning). […] of compound was added per well. The assay was initiated by the addition of 10 μl of 20 nM ^3H—NαMH per well and incubated for one hour at room temperature with shaking. Total binding was determined in the presence of 1% DMSO and non-specific binding was determined by the inclusion of 1 μM R-α-methyl-histamine (RαMH). Incubations were then filtered through filtermat A (Perkin Elmer) and washed three times with assay buffer. Filtermats were dried at 42° C. for two hours, scintillant added and the level of bound radioactivity determined.
IC50 values for compounds were determined from seven point log scale dose-response studies and represent the concentration of compound required to inhibit 50% of the specific binding of 2 nM ^3H—NαMH (difference between total and non-specific binding). Curves were generated using the average of duplicate wells for each data point and analyzed using nonlinear regression of sigmoidal dose response (variable slope).
For the compound `Cc1nn(-c2ccccc2)c(C)c1CNC(=O)c1ccc2c(c1)CCN(C1CCC1)CC2` [Example 110, 3-Cyclobutyl-N-((3,5-dimethyl-1-phenyl-1H-pyrazol-4-yl)methyl)-2,3,4,5-tetrahydro-1H-benzo[d]azepine-7-carboxamide], the IC50 is 17 nM.

`O=C(NCc1ncc[nH]1)c1ccc2c(c1)CCN(C1CCC1)CC2` [Example 113, N-((1H-Imidazol-2-yl)methyl)-3-cyclobutyl-2,3,4,5-tetrahydro-1H-benzo[d]azepine-7-carboxamide]: the IC50 worked out at 13 nM.

As to `O=C(NCc1ccc2c(c1)CCN(C1CCC1)CC2)c1cccnc1` [Example 120, N-((3-cyclobutyl-2,3,4,5-tetrahydro-1H-benzo[d]azepin-7-yl)methyl)nicotinamide], the IC50 was found to be 1 nM.

With `CO/N=C(\CCc1ccccc1)c1ccc2c(c1)CCN(C1CCC1)CC2` [Example 131, 1-(3-cyclobutyl-2,3,4,5-tetrahydro-1H-benzo[d]azepin-7-yl)-3-phenylpropan-1-one O-methyl oxime], the IC50 turned out to be 30 nM.

`O/N=C(\CCc1ccccc1)c1ccc2c(c1)CCN(C1CCC1)CC2` [Example 132, 1-(3-cyclobutyl-2,3,4,5-tetrahydro-1H-benzo[d]azepin-7-yl)-3-phenylpropan-1-one oxime]: the 50% inhibitory concentration (IC50) turned out to be 6 nM.

With `Cn1nccc1CCC(O)c1ccc2c(c1)CCN(C1CCC1)CC2` (stereo not drawn) [Example 137, 1-(3-cyclobutyl-2,3,4,5-tetrahydro-1H-benzo[d]azepin-7-yl)-3-(1-methyl-1H-pyrazol-5-yl)propan-1-ol], the IC50 was determined as 26 nM.

As for `O=C(C1CCC1)N1CCC(O)(Cc2ccc3c(c2)CCN(C2CCC2)CC3)CC1` [Example 155, cyclobutyl(4-((3-cyclobutyl-2,3,4,5-tetrahydro-1H-benzo[d]azepin-7-yl)methyl)-4-hydroxypiperidin-1-yl)methanone], the IC50 is 24 nM.

In the case of `Cc1nc(C)c(C(=O)NCc2ccc3c(c2)CCN(C2CCC2)CC3)s1` [Example 268, N-((3-cyclobutyl-2,3,4,5-tetrahydro-1H-benzo[d]azepin-7-yl)methyl)-2,4-dimethylthiazole-5-carboxamide], the IC50 was found to be 4 nM.

As to `O=C(NCc1ccc2c(c1)CCN(C1CCOC1)CC2)c1ccc(N2CCCC2)nc1` (stereo not drawn) [Example 269, 6-(pyrrolidin-1-yl)-N-((3-(tetrahydrofuran-3-yl)-2,3,4,5-tetrahydro-1H-benzo[d]azepin-7-yl)methyl)nicotinamide], the IC50 was 2.5 nM.

Turning to `COc1ccc(NC(=O)Cc2ccc3c(c2)CCN(C2CCC2)CC3)cn1` [Example 274, 2-(3-cyclobutyl-2,3,4,5-tetrahydro-1H-benzo[d]azepin-7-yl)-N-(6-methoxypyridin-3-yl)acetamide], the IC50 was 9 nM.

As for `COc1nc(C)c(C(=O)NCc2ccc3c(c2)CCN(C2CCC2)CC3)s1` [Example 275, N-((3-cyclobutyl-2,3,4,5-tetrahydro-1H-benzo[d]azepin-7-yl)methyl)-2-methoxy-4-methylthiazole-5-carboxamide], the IC50 was 7 nM.

Consider `Cc1nocc1C(=O)NCc1ccc2c(c1)CCN(C1CCC1)CC2` [Example 276, N-((3-cyclobutyl-2,3,4,5-tetrahydro-1H-benzo[d]azepin-7-yl)methyl)-3-methylisoxazole-4-carboxamide], for which the IC50 is 19 nM.

As for `O=C(NCc1ccc2c(c1)CCN(C1CCC1)CC2)c1ccc(NCC2CC2)nc1` [Example 280, N-[(3-cyclobutyl-2,3,4,5-tetrahydro-1H-3-benzazepin-7-yl)methyl]-6-[(cyclopropylmethyl)amino]pyridine-3-carboxamide], the IC50 amounted to 0.3 nM.

`O=C(NCc1ccc2c(c1)CCN(C1CCC1)CC2)c1ccc(O[C@H]2CCOC2)nc1` [Example 281, N-[(3-cyclobutyl-2,3,4,5-tetrahydro-1H-3-benzazepin-7-yl)methyl]-6-[(3S)-tetrahydrofuran-3-yloxy]pyridine-3-carboxamide]: the IC50 came out at 0.8 nM.

Turning to `O=C(NCc1ccc2c(c1)CCN(C1CCC1)CC2)c1ccc(NC2CCOC2)nc1` (stereo not drawn) [Example 282, N-[(3-cyclobutyl-2,3,4,5-tetrahydro-1H-3-benzazepin-7-yl)methyl]-6-(tetrahydrofuran-3-ylamino)pyridine-3-carboxamide], the half-inhibitory concentration (IC50) turned out to be 1 nM.

Consider `O=C(NCc1ccc2c(c1)CCN(C1CC(O)C1)CC2)c1ccc(N2CCCC2)nc1` (stereo not drawn) [Example 287, N-((3-(3-hydroxycyclobutyl)-2,3,4,5-tetrahydro-1H-benzo[d]azepin-7-yl)methyl)-6-(pyrrolidin-1-yl)nicotinamide], for which the IC50 was found to be 1 nM.

In the case of `C[C@H](O)CNc1ccc(C(=O)NCc2ccc3c(c2)CCN(C2CCC2)CC3)cn1` [Example 290, (S)—N-((3-cyclobutyl-2,3,4,5-tetrahydro-1H-benzo[d]azepin-7-yl)methyl)-6-(2-hydroxypropylamino)nicotinamide], the IC50 was found to be 3 nM.

Take `O=C(Cc1ccc2c(c1)CCN(C1CCC1)CC2)Nc1ccc(N2CCCC2)nc1` [Example 294, 2-(3-cyclobutyl-2,3,4,5-tetrahydro-1H-3-benzazepin-7-yl)-N-[6-(pyrrolidin-1-yl)pyridin-3-yl]acetamide]: the IC50 was determined as 8 nM.

`O=C(NCc1ccc2c(c1)CCN(C1CCOC1)CC2)c1ccc(N2CC[C@H](F)C2)nc1` (stereo partly drawn) [Example 300, 6-((S)-3-fluoropyrrolidin-1-yl)-N-((3-(tetrahydrofuran-3-yl)-2,3,4,5-tetrahydro-1H-benzo[d]azepin-7-yl)methyl)nicotinamide]: the IC50 was found to be 5 nM.

For the compound `CNc1ncc(C(=O)NCc2ccc3c(c2)CCN(C2CCC2)CC3)cn1` [Example 302, N-((3-cyclobutyl-2,3,4,5-tetrahydro-1H-benzo[d]azepin-7-yl)methyl)-2-(methylamino)pyrimidine-5-carboxamide], the 50% inhibitory concentration (IC50) turned out to be 3 nM.

With `CN(Cc1ccc2c(c1)CCN(C1CCC1)CC2)C(=O)c1cnc(N2CCCC2)nc1` [Example 313, N-((3-cyclobutyl-2,3,4,5-tetrahydro-1H-benzo[d]azepin-7-yl)methyl)-N-methyl-2-(pyrrolidin-1-yl)pyrimidine-5-carboxamide], the IC50 came to 1 nM.

`COCC(C)(C)Oc1ccc(C(=O)NCc2ccc3c(c2)CCN(C2CCC2)CC3)cn1` [Example 315, N-[(3-cyclobutyl-2,3,4,5-tetrahydro-1H-3-benzazepin-7-yl)methyl]-6-[(1-methoxy-2-methylpropan-2-yl)oxy]pyridine-3-carboxamide]: the IC50 came out at 2 nM.

On to `C[C@@H](O)CN(C)c1ccc(C(=O)NCc2ccc3c(c2)CCN(C2CCC2)CC3)cn1` [Example 316, (R)—N-((3-cyclobutyl-2,3,4,5-tetrahydro-1H-benzo[d]azepin-7-yl)methyl)-6-((2-hydroxypropyl)(methyl)amino)nicotinamide], for which the 50% inhibitory concentration (IC50) was 0.9 nM.

For the compound `O=C(NCc1ccc2c(c1)CCN(C1CCC1)CC2)[C@H]1C[C@@H](OC2CCOCC2)C1` [Example 319, cis-N-((3-cyclobutyl-2,3,4,5-tetrahydro-1H-benzo[d]azepin-7-yl)methyl)-3-(tetrahydro-2H-pyran-4-yloxy)cyclobutanecarboxamide], the IC50 amounted to 62 nM.

Source of the values: US20110124626A1, “BENZAZEPINE DERIVATIVES AND THEIR USE AS HISTAMINE H3 ANTAGONISTS” (TAKEDA PHARMACEUTICAL COMPANY LIMITED, priority 2008, published 2011).
